Patent US3939143A, “1-N-isoserylkanamycins and the production thereof” (Zaidan Hojin Biseibutsu Kagaku Kenkyu Kai, priority 1973, dated 1976)
Values after ≈ are worked out from the molar mass of the structure shown. Like-named read-outs stand apart in the source and are kept apart here.

How the values were obtained:
[1] = tested on: Staphylococcus aureus FDA 209P; assay: Minimum inhibitory concentration, serial dilution on nutrient agar; format: cell-based; settings: FDA209P, read-out: Minimum Inhibitory Concentration
[2] = tested on: Staphylococcus aureus Smith; assay: as above; format: cell-based; settings: read-out: Minimum Inhibitory Concentration
[3] = tested on: Staphylococcus aureus Terajima; assay: as above; format: cell-based; settings: read-out: Minimum Inhibitory Concentration
Sarcina lutea PCI 1001 = assay: as above; format: cell-based; settings: Micrococcus luteus, read-out: Minimum Inhibitory Concentration
Bacillus anthracis = assay: microbe, parasite or virus in culture; format: cell-based; settings: 18 h, read-out: Minimum Inhibitory Concentration
[4] = tested on: Bacillus subtilis PCI 219; assay: Minimum inhibitory concentration, serial dilution on nutrient agar; format: cell-based; settings: read-out: Minimum Inhibitory Concentration
[5] = tested on: Bacillus subtilis NRRL B-558; assay: as above; format: cell-based; settings: read-out: Minimum Inhibitory Concentration
[6] = tested on: Bacillus cereus ATCC 10702; assay: as above; format: cell-based; settings: read-out: Minimum Inhibitory Concentration
[7] = tested on: Corynebacterium bovis 1810; assay: as above; format: cell-based; settings: Corynebacterium bovis, 1810, 18 h, read-out: Minimum Inhibitory Concentration
[8] = tested on: Mycobacterium smegmatis ATCC 607; assay: as above; format: cell-based; settings: Mycolicibacterium smegmatis, read-out: Minimum Inhibitory Concentration
[9] = tested on: Shigella dysenteriae JS 11910; assay: as above; format: cell-based; settings: JS11910, 18 h, read-out: Minimum Inhibitory Concentration
[10] = tested on: Escherichia coli K-12 ML 1630; assay: as above; format: cell-based; settings: K12ML1630, 37°C, 18 hours
Protocol: (§1) The minimum inhibitory concentrations (mcg/ml) of 1-N-DL-isoserylkanamycin,1-N-DL-isoserylkanamycin B and 1-N-DL-isoseryl-3',4'-dideoxykanamycin B against various microorganisms were determined according to the serial dilution method using nutrient agar medium at 37°C, the estimation being effected after 18 hours incubation. For comparison purposes, the minimum inhibitory concentrations of kanamycin, kanamycin B and 3',4'-dideoxykanamycin B were also determined in the same manner and under the same conditions as mentioned above.
(§2) The antibacterial spectra of 1-N-DL-isoseryl-kanamycin (abbreviated as 1-IS-KM), 1-N-DL-isoseryl-kanamycin B (abbreviated as 1-IS-KMB) and 1-N-DL-isoseryl-3',4'-dideoxykanamycin B (abbreviated as 1-IS-DKB) are shown in the following table together with those of kanamycin (abbreviatedas KM), kanamycin B (abbreviated as KMB) and 3',4'-dideoxykanamycin B (abbreviated as DKB).

[11] = tested on: Pseudomonas aeruginosa A3; assay: as above; format: cell-based; settings: 37°C, 18 hours
Protocol: as §1, §2

[12] = tested on: Pseudomonas aeruginosa TI-13; assay: as above; format: cell-based; settings: TI13, 37°C, 18 hours
Protocol: as §1, §2

[13] = tested on: Shigella flexneri 4b JS 11811; assay: as above; format: cell-based; settings: 4BJS11811, 37°C, 18 hours
Protocol: as §1, §2

Shigella sonnei JS 11746 = assay: as above; format: cell-based; settings: JS11746, 37°C, 18 hours
Protocol: as §1, §2

Salmonella typhosa T-63 = assay: as above; format: cell-based; settings: Salmonella enterica, 18 h, read-out: Minimum Inhibitory Concentration
[14] = tested on: Salmonella enteritidis 1891; assay: as above; format: cell-based; settings: Salmonella enterica, read-out: Minimum Inhibitory Concentration
Proteus vulgaris OX 19 = assay: as above; format: cell-based; settings: read-out: Minimum Inhibitory Concentration
[15] = tested on: Klebsiella pneumoniae PCI 602; assay: as above; format: cell-based; settings: read-out: Minimum Inhibitory Concentration
[16] = tested on: Klebsiella pneumoniae 22 No. 3038; assay: as above; format: cell-based; settings: 22NO.3038, 18 h, read-out: Minimum Inhibitory Concentration
Escherichia coli NIHJ = assay: as above; format: cell-based; settings: 18 h, read-out: Minimum Inhibitory Concentration
Escherichia coli K-12 = assay: as above; format: cell-based; settings: read-out: Minimum Inhibitory Concentration
[17] = tested on: Escherichia coli K-12 ML 1629; assay: as above; format: cell-based; settings: K12ML1629, 18 h, read-out: Minimum Inhibitory Concentration
[18] = tested on: Escherichia coli K-12 ML 1410; assay: as above; format: cell-based; settings: K12ML1410, 18 h, read-out: Minimum Inhibitory Concentration
[19] = tested on: Escherichia coli K-12 ML 1410 R81; assay: as above; format: cell-based; settings: 18 h, read-out: Minimum Inhibitory Concentration
[20] = tested on: Escherichia coli LA290 R55; assay: as above; format: cell-based; settings: LA290R55, 18 h, read-out: Minimum Inhibitory Concentration
[21] = tested on: Escherichia coli LA290 R56; assay: as above; format: cell-based; settings: LA290R56, 18 h, read-out: Minimum Inhibitory Concentration
[22] = tested on: Escherichia coli LA290 R64; assay: as above; format: cell-based; settings: LA290R64, 18 h, read-out: Minimum Inhibitory Concentration
Escherichia coli W677 = assay: as above; format: cell-based; settings: read-out: Minimum Inhibitory Concentration
[23] = tested on: Escherichia coli JR66/W677; assay: as above; format: cell-based; settings: JR66/W677, 18 h, read-out: Minimum Inhibitory Concentration
[24] = tested on: Pseudomonas aeruginosa No.12; assay: as above; format: cell-based; settings: read-out: Minimum Inhibitory Concentration
[25] = tested on: Pseudomonas aeruginosa GN315; assay: as above; format: cell-based; settings: read-out: Minimum Inhibitory Concentration
[26] = tested on: Pseudomonas aeruginosa 99; assay: as above; format: cell-based; settings: read-out: Minimum Inhibitory Concentration
[27] = tested on: gram-negative and gram-positive bacteria; assay: antibacterial activity, in words; format: cell-based; settings: gram-negative and gram-positive bacteria sensitive to kanamycins
Protocol: as §1, §2

[28] = tested on: drug-resistant strains of Escherichia coli and Pseudomonas aeruginosa; assay: antibacterial activity against drug-resistant strains, in words; format: cell-based
[29] = acute toxicity upon intravenous injection in mice; format: in vivo; settings: mouse, in vivo; intravenous injection, mice

Compound	MIC (Bacillus anthracis) [µg/mL]	MIC [7] [µg/mL]	MIC [9] [µg/mL]	MIC [10] [µg/mL]	MIC [11] [µg/mL]	MIC [12] [µg/mL]	MIC [13] [µg/mL]	MIC (Shigella sonnei JS 11746) [µg/mL]	MIC (Salmonella typhosa T-63) [µg/mL]	MIC [16] [µg/mL]	MIC (Escherichia coli NIHJ) [µg/mL]	MIC [17] [µg/mL]	MIC [18] [µg/mL]	MIC [19] [µg/mL]	MIC [20] [µg/mL]	MIC [21] [µg/mL]	MIC [22] [µg/mL]	MIC [23] [µg/mL]	also measured
NCC(O)C(=O)N[C@@H]1C[C@H](N)[C@@H](O[C@H]2O[C@H](CN)[C@@H](O)[C@H](O)[C@H]2O)[C@H](O)[C@H]1O[C@H]1O[C@H](CO)[C@@H](O)[C@H](N)[C@H]1O (mixture of isomers) [1-IS-KM, 1-N-DL-isoserylkanamycin]	< 0.2	1.56	3.13	1.56	3.13	3.13	3.13	1.56	0.78	1.56	1.56	1.56	1.56	1.56	1.56	0.78	0.78	3.13	MIC ([1]; 37°C, 18 hours): 0.78 µg/mL; MIC ([2]; 37°C, 18 hours): 0.2 µg/mL; MIC ([3]; 37°C, 18 hours): < 0.2 µg/mL; MIC (Sarcina lutea PCI 1001; PCI1001, 37°C, 18 hours): 3.12 µg/mL; MIC ([4]; PCI219, 37°C, 18 hours): < 0.2 µg/mL; MIC ([5]; NRRLB558, 37°C, 18 hours): < 0.2 µg/mL; MIC ([6]; ATCC10702, 37°C, 18 hours): 0.78 µg/mL; MIC ([8]; ATCC607, 37°C, 18 hours): 0.39 µg/mL; MIC ([14]; 37°C, 18 hours): 0.78 µg/mL; MIC (Proteus vulgaris OX 19; OX19, 37°C, 18 hours): 0.39 µg/mL; MIC ([15]; PCI602, 37°C, 18 hours): 0.39 µg/mL; MIC (Escherichia coli K-12; K12, 37°C, 18 hours): 0.78 µg/mL; MIC (Escherichia coli W677; W677, 37°C, 18 hours): 0.78 µg/mL; MIC ([24]; NO.12, 37°C, 18 hours): 0.78 µg/mL; MIC ([25]; GN315, 37°C, 18 hours): > 100 µg/mL; MIC ([26]; Pseudomonas aeruginosa, 99, 37°C, 18 hours): 6.25 µg/mL; antibacterial activity [27]: high antibacterial activity; antibacterial activity [28]: high antibacterial activity; LD50 [29]: > 200 mg/kg
NC[C@H]1O[C@H](O[C@H]2[C@H](O)[C@@H](O[C@H]3O[C@H](CO)[C@@H](O)[C@H](N)[C@H]3O)[C@H](N)C[C@@H]2N)[C@H](N)[C@@H](O)[C@@H]1O [KMB, kanamycin B, reference compound]	< 0.2	1.56 (≈ 3.23 µM)	3.13 (≈ 6.47 µM)	> 100	50 (≈ 103 µM)	100 (≈ 207 µM)	3.13 (≈ 6.47 µM)	1.56 (≈ 3.23 µM)	0.2 (≈ 0.414 µM)	> 100	0.78 (≈ 1.61 µM)	> 100	0.78 (≈ 1.61 µM)	> 100	12.5 (≈ 25.9 µM)	3.13 (≈ 6.47 µM)	3.13 (≈ 6.47 µM)	> 100	MIC ([1]; 18 h): 0.39 µg/mL (≈ 0.807 µM); MIC ([2]; 18 h): < 0.2 µg/mL; MIC ([3]; 18 h): < 0.2 µg/mL; MIC (Sarcina lutea PCI 1001; PCI1001, 18 h): 1.56 µg/mL (≈ 3.23 µM); MIC ([4]; PCI219, 18 h): < 0.2 µg/mL; MIC ([5]; NRRLB558, 18 h): < 0.2 µg/mL; MIC ([6]; ATCC10702, 18 h): 0.78 µg/mL (≈ 1.61 µM); MIC ([8]; ATCC607, 18 h): 0.78 µg/mL (≈ 1.61 µM); MIC ([14]; 18 h): 1.56 µg/mL (≈ 3.23 µM); MIC (Proteus vulgaris OX 19; OX19, 18 h): 0.78 µg/mL (≈ 1.61 µM); MIC ([15]; PCI602, 18 h): 0.78 µg/mL (≈ 1.61 µM); MIC (Escherichia coli K-12; K12, 18 h): 0.78 µg/mL (≈ 1.61 µM); MIC (Escherichia coli W677; W677, 18 h): 0.39 µg/mL (≈ 0.807 µM); MIC ([24]; NO.12, 18 h): 12.5 µg/mL (≈ 25.9 µM); MIC ([25]; GN315, 18 h): > 100 µg/mL; MIC ([26]; Pseudomonas aeruginosa, 99, 18 h): > 100 µg/mL
